Laboratory results reported in US4868321A, “Isothiocyanate intermediates” (FMC Corporation, priority 1988, dated 1989).

How the values were obtained:
Format in all cases: in vivo
Cotton [1] = experiment: Preemergence Herbicidal Activity, Cotton
Procedure, shortened: (§1)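 Herbicide dissolved, usually in 50/50 acetone/water, then applied preemergence or postemergence at a set kg/ha rate. Control assessed as % C.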

Soybean [2] = experiment: Preemergence Herbicidal Activity, Soybean
Procedure, shortened: (§2)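 Efficacy is recorded as percent control at each application rate, expressed in kg/ha.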

Wheat [3] = experiment: Preemergence Herbicidal Activity, Wheat; conditions: Triticum aestivum, pre-emergence
Procedure, shortened: as §2

Barnyardgrass [4] = experiment: Preemergence Herbicidal Activity, Barnyardgrass; conditions: Echinochloa crus-galli, pre-emergence
Procedure, shortened: (§3)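 Application rate is expressed per hectare in kilograms. Values are percent control.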

Green Foxtail [5] = experiment: Preemergence Herbicidal Activity, Green Foxtail; conditions: Setaria viridis, pre-emergence
Procedure, shortened: as §3

Johnsongrass [6] = experiment: Preemergence Herbicidal Activity, Johnsongrass; conditions: Sorghum halepense, pre-emergence
Procedure, shortened: as §3

Cotton [7] = experiment: Postemergence Herbicidal Activity, Cotton; conditions: Gossypium hirsutum, post-emergence
Procedure, shortened: as §1

Soybean [8] = experiment: Postemergence Herbicidal Activity, Soybean; conditions: Glycine max, post-emergence
Procedure, shortened: as §2

Field Corn [9] = experiment: Postemergence Herbicidal Activity, Field Corn; conditions: Zea mays, post-emergence
Procedure, shortened: as §2

Rice [10] = experiment: Postemergence Herbicidal Activity, Rice; conditions: Oryza sativa, post-emergence
Procedure, shortened: as §2

Wheat [11] = experiment: Postemergence Herbicidal Activity, Wheat; conditions: Triticum aestivum, post-emergence
Procedure, shortened: as §2

Field Bindweed [12] = experiment: Postemergence Herbicidal Activity, Field Bindweed; conditions: post-emergence
Procedure, shortened: as §1

Morningglory [13] = experiment: Postemergence Herbicidal Activity, Morningglory; conditions: Ipomoea, post-emergence
Procedure, shortened: as §1

Velvetleaf [14] = experiment: Postemergence Herbicidal Activity, Velvetleaf; conditions: Abutilon theophrasti, post-emergence
Procedure, shortened: as §1

Barnyardgrass [15] = experiment: Postemergence Herbicidal Activity, Barnyardgrass; conditions: Echinochloa crus-galli, post-emergence
Procedure, shortened: as §3

Green Foxtail [16] = experiment: Postemergence Herbicidal Activity, Green Foxtail; conditions: Setaria viridis, post-emergence
Procedure, shortened: as §3

Johnsongrass [17] = experiment: Postemergence Herbicidal Activity, Johnsongrass; conditions: Sorghum halepense, post-emergence
Procedure, shortened: as §3

weeds of wide spectrum = experiment: weed control of paddy rice in pots, weeds; conditions: 1 day and 11 day treatments, e.g. about 0.06 kg/ha or less
Source text: (§4) In addition, tests of the effectiveness of weed control of paddy rice were done in pots containing clay loam paddy soil under water maintained at a depth of 3 cm. In one test tubers of narrowleaf arrowhead (Sagittaria pymaea) and rhizomes of flatsedge (Cyperus serotinus) were planted in pots at depth of 2 cm and 0.5 cm respectively, rice seedlings of 2.2 leaf state were transplanted in depth of 2 cm and 0 cm and a controlled amount of a 10% wp (wettable powder) formulation of the herbicidal compound in water was dropped into the water over the soil at 1 day and 11 days, respectively, after transplanting. In another test, seeds of various weed species (including barnyardgrass, Echinochoa crus-galli; small flower umbrellaplant, Cyperus difformis; bulrush, Scripus juncoides; Japanese ducksalad, Monochoria vaginalis; annual broadleaf weeds; and narrowleaf waterplantain, Alisma canaliculatium) were sown on the surface of the soil and the same (1 day and 11 day) herbicide applications were made.

Rice [18] = experiment: weed control of paddy rice in pots, transplanted rice; conditions: rice transplanted at a depth of 2 cm
Source text: as §4

[19] = system: soybeans, corn, barley, wheat, rice (e.g. paddy rice), beans, peas, peanuts and potatoes; experiment: selective herbicidal use on crops, especially preemergent
broadleafed weeds = experiment: postemergence control of broadleaf weeds
broad leaf weeds = experiment: preemergence use against broad leaf weeds; conditions: with crops such as corn, rice, wheat and soybeans
Field Corn [20] = experiment: Preemergence Herbicidal Activity, Field Corn; conditions: Zea mays, pre-emergence
Procedure, shortened: as §2

Rice [21] = experiment: Preemergence Herbicidal Activity, Rice; conditions: Oryza sativa, pre-emergence
Procedure, shortened: as §2

Field Bindweed [22] = experiment: Preemergence Herbicidal Activity, Field Bindweed; conditions: pre-emergence
Procedure, shortened: as §1

Morningglory [23] = experiment: Preemergence Herbicidal Activity, Morningglory; conditions: Ipomoea, pre-emergence
Procedure, shortened: as §1

Velvetleaf [24] = experiment: Preemergence Herbicidal Activity, Velvetleaf; conditions: Abutilon theophrasti, pre-emergence
Procedure, shortened: as §1

cotton or soybeans = experiment: preemergence crop selectivity; conditions: rates below about 1/4 or 1/10 kg/ha
corn, wheat and soybeans = experiment: postemergence crop selectivity

CCS(=O)(=O)Nc1cc(-n2nnn(CCCF)c2=O)c(F)cc1Cl [Compound 4, 1-[4-chloro-2-fluoro-5-(ethylsulfonylamino)phenyl]-1,4-dihydro-4-(3-fluoropropyl)-5H-tetrazol-5-one]
Preemergence Herbicidal Activity (Cotton [1]; 0.25 kg/ha): 95 % Control
Preemergence Herbicidal Activity (Soybean [2]; 0.25 kg/ha): 0 % Control
plant injury at 250 g/ha (Wheat [3]; 0.25 kg/ha): 10%
pest or weed control at 250 g/ha (Barnyardgrass [4]; 0.25 kg/ha): 80%
pest or weed control at 250 g/ha (Green Foxtail [5]; 0.25 kg/ha): 20%
pest or weed control at 250 g/ha (Johnsongrass [6]; 0.25 kg/ha): 30%
plant injury at 250 g/ha (Cotton [7]; 0.25 kg/ha): 100%
plant injury at 250 g/ha (Soybean [8]; 0.25 kg/ha): 60%
plant injury at 250 g/ha (Field Corn [9]; 0.25 kg/ha): 50%
plant injury at 250 g/ha (Rice [10]; 0.25 kg/ha): 20%
plant injury at 250 g/ha (Wheat [11]; 0.25 kg/ha): 20%
pest or weed control at 250 g/ha (Field Bindweed [12]; 0.25 kg/ha): 100%
pest or weed control at 250 g/ha (Morningglory [13]; 0.25 kg/ha): 95%
pest or weed control at 250 g/ha (Velvetleaf [14]; 0.25 kg/ha): 100%
pest or weed control at 250 g/ha (Barnyardgrass [15]; 0.25 kg/ha): 50%
pest or weed control at 250 g/ha (Green Foxtail [16]; 0.25 kg/ha): 80%
pest or weed control at 250 g/ha (Johnsongrass [17]; 0.25 kg/ha): 20%
activity against weeds (paddy) (weeds of wide spectrum): very high activity
selectivity (paddy rice) (Rice [18]): selectivity favorable to rice
effective rate ([19]; "effective at low rates, e.g. at about 0.5 kg/ha and below"): ≤ 0.5 kg/ha
selective herbicidal effectiveness ([19]; especially preemergent use on crops): particularly effective
control of broadleafed weeds, postemergent (broadleafed weeds; plantings of corn, wheat, barley, oats, rice and sorghum, about 30 to 250 g/ha, e.g. 125 g/ha): very good control
usefulness preemergently against broad leaf weeds (broad leaf weeds): particularly useful

CCCN(c1cc(-n2nnn(CCCF)c2=O)c(F)cc1Cl)S(=O)(=O)CC [Compound 14]
plant injury at 1000 g/ha (Cotton [1]; Gossypium hirsutum, pre-emergence, 1.0 kg/ha): 100%
plant injury at 1000 g/ha (Soybean [2]; Glycine max, pre-emergence, 1.0 kg/ha): 95%
plant injury at 1000 g/ha (Field Corn [20]; 1.0 kg/ha): 100%
plant injury at 1000 g/ha (Rice [21]; 1.0 kg/ha): 100%
plant injury at 1000 g/ha (Wheat [3]; 1.0 kg/ha): 100%
pest or weed control at 1000 g/ha (Field Bindweed [22]; 1.0 kg/ha): 100%
pest or weed control at 1000 g/ha (Morningglory [23]; 1.0 kg/ha): 100%
pest or weed control at 1000 g/ha (Velvetleaf [24]; 1.0 kg/ha): 100%
pest or weed control at 1000 g/ha (Barnyardgrass [4]; 1.0 kg/ha): 100%
pest or weed control at 1000 g/ha (Green Foxtail [5]; 1.0 kg/ha): 100%
pest or weed control at 1000 g/ha (Johnsongrass [6]; 1.0 kg/ha): 100%
plant injury at 1000 g/ha (Cotton [7]; 1.0 kg/ha): 100%
plant injury at 1000 g/ha (Soybean [8]; 1.0 kg/ha): 100%
plant injury at 1000 g/ha (Field Corn [9]; 1.0 kg/ha): 100%
plant injury at 1000 g/ha (Rice [10]; 1.0 kg/ha): 100%
plant injury at 1000 g/ha (Wheat [11]; 1.0 kg/ha): 100%
pest or weed control at 1000 g/ha (Field Bindweed [12]; 1.0 kg/ha): 100%
pest or weed control at 1000 g/ha (Morningglory [13]; 1.0 kg/ha): 100%
pest or weed control at 1000 g/ha (Velvetleaf [14]; 1.0 kg/ha): 100%
pest or weed control at 1000 g/ha (Barnyardgrass [15]; 1.0 kg/ha): 100%
pest or weed control at 1000 g/ha (Green Foxtail [16]; 1.0 kg/ha): 100%
pest or weed control at 1000 g/ha (Johnsongrass [17]; 1.0 kg/ha): 100%
herbicide selectivity (cotton or soybeans): highly selective

CCS(=O)(=O)N(c1cc(-n2nnn(CCCF)c2=O)c(F)cc1Cl)S(C)(=O)=O [Compound 11, 1-[4-chloro-2-fluoro-5-[(N--ethylsulfonyl-N--methylsulfonyl)amino]-phenyl]-1,4-dihydro-4-(3-fluoropropyl)-5H--tetrazol-5-one]
plant injury at 500 g/ha (Cotton [1]; Gossypium hirsutum, pre-emergence, 0.5 kg/ha): 100%
plant injury at 500 g/ha (Soybean [2]; Glycine max, pre-emergence, 0.5 kg/ha): 30%
plant injury at 500 g/ha (Field Corn [20]; 0.5 kg/ha): 95%
plant injury at 500 g/ha (Rice [21]; 0.5 kg/ha): 80%
plant injury at 500 g/ha (Wheat [3]; 0.5 kg/ha): 80%
pest or weed control at 500 g/ha (Field Bindweed [22]; 0.5 kg/ha): 100%
pest or weed control at 500 g/ha (Morningglory [23]; 0.5 kg/ha): 100%
pest or weed control at 500 g/ha (Velvetleaf [24]; 0.5 kg/ha): 100%
pest or weed control at 500 g/ha (Barnyardgrass [4]; 0.5 kg/ha): 100%
pest or weed control at 500 g/ha (Green Foxtail [5]; 0.5 kg/ha): 100%
pest or weed control at 500 g/ha (Johnsongrass [6]; 0.5 kg/ha): 90%
plant injury at 500 g/ha (Cotton [7]; 0.5 kg/ha): 100%
plant injury at 500 g/ha (Soybean [8]; 0.5 kg/ha): 60%
plant injury at 500 g/ha (Field Corn [9]; 0.5 kg/ha): 80%
plant injury at 500 g/ha (Rice [10]; 0.5 kg/ha): 40%
plant injury at 500 g/ha (Wheat [11]; 0.5 kg/ha): 70%
pest or weed control at 500 g/ha (Field Bindweed [12]; 0.5 kg/ha): 100%
pest or weed control at 500 g/ha (Morningglory [13]; 0.5 kg/ha): 80%
pest or weed control at 500 g/ha (Velvetleaf [14]; 0.5 kg/ha): 100%
pest or weed control at 500 g/ha (Barnyardgrass [15]; 0.5 kg/ha): 80%
pest or weed control at 500 g/ha (Green Foxtail [16]; 0.5 kg/ha): 80%
pest or weed control at 500 g/ha (Johnsongrass [17]; 0.5 kg/ha): 50%
results in postemergence use against broadleafed weeds (broadleafed weeds; postemergence, corn, wheat and soybeans): particularly good results
selectivity for crops, postemergence (corn, wheat and soybeans): favorable selectivity
